According to patent US20230134922A1, “TOPICAL DELIVERY OF BUFFERING AGENTS FOR PREVENTION AND TREATMENT OF VIRAL INFECTIONS” (Dyve Biosciences, Inc., priority 2020, published 2023):

Assays:
MCF-7 tumors = assay: MCF-7 tumor growth in SCID mice, doxorubicin with oral or topical bicarbonate; format: in vivo
Protocol: The start of the bicarbonate treatment was designated as day 1.
Tumor volumes and animal weights were monitored every 2 days. […] Other characteristics of tumors that increase its potential for carcinogenesis other than growth rates are measured by other parameters as well, including inhibition metastasis.

MCF-7 cells = assay: Doxorubicin uptake and cytotoxicity at medium pH 6.8 or 7.4; format: cell-based; settings: raising the pHe from 6.8 to 7.4
Protocol: Twenty-four hours later, regular growth medium was replaced, and cells allowed to grow a subsequent 72 h, after which time they were fixed and stained with crystal violet for determination of cell number.

doxorubicin
decrease of tumor growth rate (MCF-7 tumors; Group B, 1.6 mg/kg i.p. days 3, 7, 11, doxorubicin alone): ~30%
reduction in tumor growth rate (MCF-7 tumors; Group D, doxorubicin i.p. with 200 mM sodium bicarbonate drinking water): 55%
reduction in tumor growth rate (MCF-7 tumors; Group F, doxorubicin i.p. with topical bicarbonate formulation 150 μL/day): significantly lowered tumor growth rate
reduction in tumor growth rate (MCF-7 tumors; Group F, doxorubicin i.p. with topical bicarbonate formulation 150 μL/day, listed as Doxorubicin): 55%
enhancement of cytotoxicity (MCF-7 cells): 2.25 fold
increase in intracellular doxorubicin concentrations (MCF-7 cells): 2.56 fold
